What was measured:
TRPC5 [1] = target: T1, TRPC5 (Homo sapiens, UniProt Q9UL62); assay: Whole-cell patch clamp, AlF4- activated TRPC5 HEK293 cells; assay type: cell-based; conditions: 10 μM 2-APB, used for background calculation
T1 construct: expressed in transfected cells; host or cells: HEK293 FITR (inducible expression)
T1 sequence (Q9UL62 1-973): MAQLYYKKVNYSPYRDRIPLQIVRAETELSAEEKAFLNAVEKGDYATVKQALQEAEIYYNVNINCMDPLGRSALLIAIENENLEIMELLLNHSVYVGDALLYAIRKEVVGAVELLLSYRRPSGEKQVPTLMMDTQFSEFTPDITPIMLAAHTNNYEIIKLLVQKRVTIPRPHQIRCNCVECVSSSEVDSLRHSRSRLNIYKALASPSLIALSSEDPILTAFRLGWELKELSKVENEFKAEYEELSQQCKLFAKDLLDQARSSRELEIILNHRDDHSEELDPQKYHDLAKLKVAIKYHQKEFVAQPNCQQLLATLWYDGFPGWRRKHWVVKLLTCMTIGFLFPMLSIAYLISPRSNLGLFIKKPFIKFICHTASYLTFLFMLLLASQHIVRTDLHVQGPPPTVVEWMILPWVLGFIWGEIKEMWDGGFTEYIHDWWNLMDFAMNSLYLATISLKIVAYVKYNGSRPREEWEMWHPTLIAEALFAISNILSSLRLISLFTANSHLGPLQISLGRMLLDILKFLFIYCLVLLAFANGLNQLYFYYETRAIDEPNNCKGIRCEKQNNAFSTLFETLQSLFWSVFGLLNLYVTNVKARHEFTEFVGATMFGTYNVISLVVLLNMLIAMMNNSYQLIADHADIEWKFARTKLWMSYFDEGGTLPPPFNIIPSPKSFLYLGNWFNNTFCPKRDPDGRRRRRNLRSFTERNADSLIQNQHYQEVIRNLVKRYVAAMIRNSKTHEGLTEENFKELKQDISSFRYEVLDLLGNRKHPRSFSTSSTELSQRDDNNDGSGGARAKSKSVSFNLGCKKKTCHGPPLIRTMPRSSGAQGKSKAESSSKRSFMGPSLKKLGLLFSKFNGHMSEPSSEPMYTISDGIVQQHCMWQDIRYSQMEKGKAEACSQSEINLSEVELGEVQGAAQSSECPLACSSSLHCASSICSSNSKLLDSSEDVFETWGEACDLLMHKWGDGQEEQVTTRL
Experimental: Channels were indirectly excited with the same stimulus for better comparability of the norgestimate effect. Aluminium tetrafluoride (AIF^4−) applied intracellularly via the patch pipette activates G-proteins by mimicking GTP (Sternweis & Gilman, 1982; Bigay et al., 1987).
Since these channels are potentiated by micromolar La^3+ concentrations (Jung et al., 2003), 2-aminoethoxydiphenyl borate (2-APB), a characterized TRPC5 blocker (Xu et al., 2005) was used instead.
Effect of 10 μM norgestimate (NG) on whole-cell currents evoked by AlF4^− infusion into induced TRPC6— (A) and TRPC5 HEK 293 (B) cells. Whole cell currents recorded at −70 mV (left panels) and the corresponding current-voltage (I-V) relationships are shown (right panels). […] The curves were obtained during voltage ramps from −100 to +80 mV. (C) Statistical analysis of the norgestimate effect on TRPC5— and TRPC6-mediated currents.

TRPC6 = target: T2, TRPC6 (Homo sapiens, UniProt Q9Y210); assay: Whole-cell patch clamp, AlF4- activated TRPC6 HEK293 cells; assay type: cell-based; conditions: 10 μM La3+, used for background calculation
T2 construct: expressed in transfected cells; host or cells: HEK293 (inducible expression)
T2 sequence (Q9Y210 1-931): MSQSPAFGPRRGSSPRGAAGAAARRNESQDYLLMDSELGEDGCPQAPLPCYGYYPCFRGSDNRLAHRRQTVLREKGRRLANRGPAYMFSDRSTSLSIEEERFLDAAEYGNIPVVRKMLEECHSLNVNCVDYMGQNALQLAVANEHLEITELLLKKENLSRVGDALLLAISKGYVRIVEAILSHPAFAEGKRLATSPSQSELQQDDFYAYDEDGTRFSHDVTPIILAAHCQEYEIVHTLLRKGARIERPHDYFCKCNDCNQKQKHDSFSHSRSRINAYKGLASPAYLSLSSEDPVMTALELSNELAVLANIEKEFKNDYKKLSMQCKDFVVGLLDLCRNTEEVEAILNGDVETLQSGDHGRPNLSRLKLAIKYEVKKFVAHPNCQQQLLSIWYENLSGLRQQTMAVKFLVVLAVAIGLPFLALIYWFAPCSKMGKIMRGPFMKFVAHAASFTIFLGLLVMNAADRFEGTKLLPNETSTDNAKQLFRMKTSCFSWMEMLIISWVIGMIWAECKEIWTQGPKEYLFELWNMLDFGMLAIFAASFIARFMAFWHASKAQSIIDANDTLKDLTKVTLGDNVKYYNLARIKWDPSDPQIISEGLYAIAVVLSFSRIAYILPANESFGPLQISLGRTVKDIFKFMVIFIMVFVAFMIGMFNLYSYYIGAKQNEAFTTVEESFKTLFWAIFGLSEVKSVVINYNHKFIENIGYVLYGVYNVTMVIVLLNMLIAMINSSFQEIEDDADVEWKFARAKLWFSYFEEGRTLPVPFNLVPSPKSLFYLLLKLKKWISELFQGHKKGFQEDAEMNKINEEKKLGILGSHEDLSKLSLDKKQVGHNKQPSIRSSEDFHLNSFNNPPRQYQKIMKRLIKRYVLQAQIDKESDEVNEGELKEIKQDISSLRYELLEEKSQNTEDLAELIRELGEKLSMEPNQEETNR
From the text: Inhibition of TRPC6- and TRPC5-mediated Ca^2+ -influx by norgestimate monitored in fluorometric experiments with cell populations was validated and compared with whole-cell patch clamp recordings of single cells. Channels were indirectly excited with the same stimulus for better comparability of the norgestimate effect. Aluminium tetrafluoride (AIF^4−) applied intracellularly via the patch pipette activates G-proteins by mimicking GTP (Sternweis & Gilman, 1982; Bigay et al., 1987). Subsequently TRPC channels are stimulated and mediate non-specific cationic currents (FIG. 3 A, B) When 10 μM norgestimate were applied to activated TRPC6 channels, 89.9 ±3.1% (n=15) of the current measured at resting membrane potential was blocked. This inhibition was reversible as current amplitude increased after norgestimate wash out (FIG. 3 A).
Effect of 10 μM norgestimate (NG) on whole-cell currents evoked by AlF4^− infusion into induced TRPC6— (A) and TRPC5 HEK 293 (B) cells. Whole cell currents recorded at −70 mV (left panels) and the corresponding current-voltage (I-V) relationships are shown (right panels). […] The curves were obtained during voltage ramps from −100 to +80 mV. (C) Statistical analysis of the norgestimate effect on TRPC5— and TRPC6-mediated currents. 10 μM norgestimate inhibit 25.9±5.7% (n=20) of TRPC5-mediated currents and 89.9±3.1% (n=15) of TRPC6-mediated currents (P<0.001, Wilcoxon test, two-sided).

TRPC5 [2] = target: T1, TRPC5; conditions: micromolar concentrations (Jung et al., 2003); cited from earlier work

| Compound | block of TRPC5 channel (TRPC5 [1]) | block of TRPC6 current (TRPC6) | block of TRPC6 current (TRPC6; listed as La^3+) | effect of micromolar La3+ concentrations on TRPC5 channels (TRPC5 [2]) |
| --- | --- | --- | --- | --- |
| NCCOB(c1ccccc1)c1ccccc1 [2-APB, 2-aminoethoxydiphenyl borate] | completely and reversibly blocked | – | – | – |
| [La] [lanthanum] | – | complete and reversible | completely blocked | potentiated |

From patent US8455469B2, “Use of norgestimate as a selective inhibitor of TRPC3, TRPC6 and TRPC7 ion channels” (Sanofi, priority 2007, dated 2013)
